Experimental findings from US20240174663A1, “PYRIMIDINE OR PYRIDINE DERIVATIVES USEFUL AS HCN2 MODULATORS” (King's College London, priority 2021, published 2024) are described below.

For one test, the target named is T1, HCN2 (Homo sapiens, UniProt Q9UL51).
T1 sequence (Q9UL51 1-889): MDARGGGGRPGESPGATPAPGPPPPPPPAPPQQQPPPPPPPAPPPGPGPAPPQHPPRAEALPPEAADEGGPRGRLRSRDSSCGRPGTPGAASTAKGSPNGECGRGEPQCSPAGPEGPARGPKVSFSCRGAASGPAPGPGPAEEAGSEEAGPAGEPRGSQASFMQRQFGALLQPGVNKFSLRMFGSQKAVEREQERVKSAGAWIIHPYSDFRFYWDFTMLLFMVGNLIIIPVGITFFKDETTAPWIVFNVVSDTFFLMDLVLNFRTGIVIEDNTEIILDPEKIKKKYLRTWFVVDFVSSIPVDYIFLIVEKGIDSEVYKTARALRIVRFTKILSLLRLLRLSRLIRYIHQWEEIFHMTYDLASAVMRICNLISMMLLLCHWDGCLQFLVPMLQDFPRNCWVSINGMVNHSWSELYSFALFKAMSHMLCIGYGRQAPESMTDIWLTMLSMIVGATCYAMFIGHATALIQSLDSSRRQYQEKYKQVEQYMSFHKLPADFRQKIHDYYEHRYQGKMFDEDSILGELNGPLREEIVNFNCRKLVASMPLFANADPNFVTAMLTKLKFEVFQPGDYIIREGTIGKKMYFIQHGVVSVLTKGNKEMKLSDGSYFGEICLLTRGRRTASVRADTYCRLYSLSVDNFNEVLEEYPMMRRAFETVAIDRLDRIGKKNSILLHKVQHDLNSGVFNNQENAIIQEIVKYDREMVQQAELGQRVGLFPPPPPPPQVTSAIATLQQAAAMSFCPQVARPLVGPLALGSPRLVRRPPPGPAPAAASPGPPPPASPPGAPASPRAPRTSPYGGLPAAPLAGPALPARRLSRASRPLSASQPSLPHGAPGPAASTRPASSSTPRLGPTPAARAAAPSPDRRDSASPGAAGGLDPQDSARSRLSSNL
Kind of test: HCN2 assay using PatchXpress 7000A (PX protocol, Example 25). It is filed as cell-based. The following applies: room temperature. As to the method:
(§1) Example 25: Assay for HCN1 HCN2 and HCN4 Using PatchXpress 7000A
(§2) Solutions for recording HCN currents were:
The membrane voltage was then stepped back to −30 mV for a further 8 seconds.
(§3) The peak inward current measured at the end of the pulse to −110 mV (HCN1 and HCN2) or −130 mV (HCN4) was measured and any leak current subtracted to calculate the HCN current. The HCN current amplitude was measured after each control or compound addition and normalized to the control amplitude (Control A).
(§4) All experiments were performed at room temperature (approximately 22° C.).
(§5) Each test compound concentration was applied to the cell for seven (7) minutes, at which point the next cumulative concentration was applied.

In another test the target is T2, HCN4 (Homo sapiens, UniProt Q9Y3Q4).
T2 sequence (Q9Y3Q4 1-1203): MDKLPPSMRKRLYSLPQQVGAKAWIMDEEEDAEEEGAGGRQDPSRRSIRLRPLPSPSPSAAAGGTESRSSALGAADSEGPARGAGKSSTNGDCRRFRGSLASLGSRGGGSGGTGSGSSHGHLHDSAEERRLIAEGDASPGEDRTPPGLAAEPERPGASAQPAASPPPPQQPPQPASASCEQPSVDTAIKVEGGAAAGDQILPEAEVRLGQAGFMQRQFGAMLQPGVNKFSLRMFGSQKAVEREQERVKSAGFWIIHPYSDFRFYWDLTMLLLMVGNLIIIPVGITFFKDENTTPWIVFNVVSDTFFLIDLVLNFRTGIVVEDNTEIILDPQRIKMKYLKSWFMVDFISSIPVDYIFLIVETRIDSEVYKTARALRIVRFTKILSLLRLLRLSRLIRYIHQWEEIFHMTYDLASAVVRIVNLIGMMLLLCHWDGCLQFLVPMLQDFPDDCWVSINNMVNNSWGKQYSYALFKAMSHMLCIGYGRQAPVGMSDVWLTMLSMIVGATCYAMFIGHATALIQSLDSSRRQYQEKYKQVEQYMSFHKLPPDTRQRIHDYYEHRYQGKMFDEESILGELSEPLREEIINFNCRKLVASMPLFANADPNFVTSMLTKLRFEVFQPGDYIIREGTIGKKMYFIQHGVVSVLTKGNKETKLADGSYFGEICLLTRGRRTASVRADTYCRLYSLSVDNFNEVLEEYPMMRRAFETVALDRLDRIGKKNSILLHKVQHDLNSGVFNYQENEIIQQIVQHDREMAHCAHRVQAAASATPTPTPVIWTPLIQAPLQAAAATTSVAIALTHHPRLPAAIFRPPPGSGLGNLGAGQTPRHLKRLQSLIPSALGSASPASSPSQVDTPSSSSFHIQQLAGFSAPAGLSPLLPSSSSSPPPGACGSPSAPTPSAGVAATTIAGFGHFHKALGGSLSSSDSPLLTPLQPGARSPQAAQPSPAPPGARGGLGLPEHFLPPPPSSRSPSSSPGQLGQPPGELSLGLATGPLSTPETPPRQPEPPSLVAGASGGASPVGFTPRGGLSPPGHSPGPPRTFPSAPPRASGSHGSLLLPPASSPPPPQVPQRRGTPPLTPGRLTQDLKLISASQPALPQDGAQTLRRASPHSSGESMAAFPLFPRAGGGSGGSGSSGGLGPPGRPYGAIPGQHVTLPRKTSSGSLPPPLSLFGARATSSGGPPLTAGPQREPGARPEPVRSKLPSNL
Kind of test: HCN4 assay using PatchXpress 7000A (PX protocol, Example 25). It counts as cell-based. The note with it: room temperature. As to the method: as §1, §2, §3, §4, §5

Where a name gives a salt, the structure may show the parent alone.

Take `Cn1nc(-c2cccnc2[C@@H](N)Cc2ccccn2)c2ccccc21` [Example 3, (S)-1-[3-(1-Methyl-1H-indazol-3-yl)pyridine-2-yl]-2-(pyridin-2-yl)ethan-1-amine hydrochloride]: the IC50 against HCN2 is 5.7 µM; against HCN4, above 30 µM.

The compound `Cn1nc(-c2ccccc2[C@@H](N)Cc2ccccn2)c2cccnc21` [Example 1, (S)-1-[2-(1-Methyl-1H-pyrazolo[3,4-b]pyridine-3-yl)phenyl]-2-(pyridin-2-yl)ethan-1-amine hydrochloride] gave an IC50 at HCN2 of 16.8 µM.

Consider `Cc1cccc(C[C@H](N)c2ccccc2-c2nn(C)c3cnccc23)n1` [Example 15, (S)-1-[2-(1-Methyl-1H-pyrazolo[3,4-c]pyridine-3-yl)phenyl]-2-(6-methylpyridine-2-yl)ethan-1-amine hydrochloride], for which the IC50 at HCN2 is 7.7 µM; at HCN4, above 30 µM.

On to `Cn1nc(-c2ccccc2[C@@H](N)Cc2ccccn2)c2ccncc21` [Example 8, (S)-1-[2-(1-Methyl-1H-pyrazolo[3,4-c]pyridine-3-yl)phenyl]-2-(pyridine-2-yl)ethan-1-amine hydrochloride], for which the values for the IC50 against HCN2 and at HCN4 were 7.9 µM and above 30 µM, respectively.

At HCN2, `N[C@@H](Cc1ccccn1)c1ccccc1-c1noc2cnccc12` [Example 14, (S)-1-[2-(Isoxazolo[5,4-c]pyridine-3-yl)phenyl]-2-(pyridin-2-yl)ethan-1-amine] gave an IC50 of 12.3 µM.

As for `CC(c1ccccn1)[C@H](N)c1ncccc1-c1noc2ccccc12` (single isomer, unassigned) [Example 12, hydrochloride], the IC50 at HCN2 was found to be 4.5 µM.

As to `N[C@@H](Cc1cccc(OCCO)n1)c1ncccc1-c1noc2ccccc12` [Example 19, (S)-2-[(6-{2-Amino-2-[3-(benzoy[d]isoxazol-3-yl)pyridine-2-yl]ethyl}pyridine-2-yl)oxy]ethano-1-ol], the IC50 on HCN2 was 4 µM; against HCN4, above 30 µM.

With `N[C@@H](Cc1ccccn1)c1cccnc1-c1noc2ccccc12` [Example 5, (S)-1-[2-(Benzoy[d]isoxazol-3-yl)pyridine-3-yl}-2-(pyridine-2-yl)ethan-1-amine hydrochloride], the IC50 against HCN2 was 19 µM.

Take `Cn1nc(-c2ccccc2[C@@H](N)Cc2cccc(C#N)n2)c2ccncc21` [Example 16, (S)-6-{2-Amino-2-[2-(1-methyl-1H-pyrazolo[3,4-c]pyridine-3-yl)phenyl]ethyl}pyridine-2-carbonitrile]: the IC50 against HCN2 is 6.8 µM; against HCN4, above 30 µM.

With `N[C@@H](Cc1ncccn1)c1ncccc1-c1noc2ccccc12` [Example 20, (S)-1-[3-(Benzo[d]isoxazol-3-yl)pyridine-2-yl]-2-(pyrimidin-2-yl)ethan-1-amine], the IC50 on HCN2 was 9 µM; against HCN4 it was above 30 µM.

On to `Cc1cccc(C[C@H](N)c2ncccc2-c2noc3ccccc23)n1` [Example 11, (S)-1-[3-(Benzoy[d]isoxazol-3-yl)pyridine-2-yl]-2-(6-methylpyridine-2-yl)ethan-1-amine hydrochloride], for which the results for the IC50 at HCN2 and against HCN4 were 5.1 µM and 22.9 µM, respectively.

Turning to `CN(C)C(=O)CCc1cccc(C[C@H](N)c2ncccc2-c2noc3ccccc23)n1` [Example 21, (S)-3-(6-{2-Amino-2-[3-(benzo[d]isoxazol-3-yl)pyridine-2-ylethyl}priding-2-yl)-N,N-dimethylpropanamide hydrochloride], the IC50 is 8.9 µM at HCN2 and above 30 µM on HCN4.

For `NC(=O)c1cccc(C[C@H](N)c2ncccc2-c2noc3ccccc23)n1` [Example 17, (S)-6-{2-Amino-2-[3-(benzoy[d]isoxazol-3-yl)pyridine-2-yl]ethyl}pyridine-2-carboxamide], the figures for the IC50 at HCN2 and against HCN4 were 6.4 µM and above 30 µM, respectively.

With `CC(c1ccccn1)[C@H](N)c1ncccc1-c1noc2ccccc12` (single isomer, unassigned) [Example 13, hydrochloride], the IC50 against HCN2 was 9.6 µM.

Consider `Cc1ccc(Br)nc1C[C@H](N)c1ncccc1-c1noc2ccccc12` [Example 22, (S)-1-[3-(Benzo[d]isoxazol-3-yl)pyridine-2-yl]-2-(6-bromo-3-methylpyridine-2-yl)ethan-1-amine hydrochloride], for which the IC50 at HCN2 came to 1.6 µM; on HCN4, 10.3 µM.

In the case of `N[C@@H](Cc1ncccc1F)c1ncccc1-c1noc2ccccc12` [Example 23, (S)-1-[3-(Benzo[d]isoxazol-3-yl)pyridine-2-yl]-2-(3-fluoropyridine-2-yl)ethan-1-amine hydrochloride], the half-inhibitory concentration (IC50) at HCN2 turned out to be 1.7 µM; against HCN4, 9.5 µM.

`N[C@@H](Cc1ccccn1)c1ncccc1-c1noc2ccccc12` [Example 6, (S)-1-[3-(Benzoy[d]isoxazol-3-yl)pyridine-2-yl}-2-(pyridine-2-yl)ethan-1-amine hydrochloride]: the IC50 was 2.2 µM on HCN2 and above 30 µM against HCN4.

On to `N[C@@H](Cc1ccccn1)c1ccncc1-c1noc2ccccc12` [Example 7, (S)-1-[3-(Benzoy[d]isoxazol-3-yl)pyridine-4-yl}-2-(pyridine-2-yl)ethan-1-amine hydrochloride], for which the IC50 on HCN2 was determined as 13.8 µM.

Consider `Cc1ccc(-c2noc3ccccc23)c([C@@H](N)Cc2ccccn2)n1` [Example 9, (S)-1-[3-(Benzoy[d]isoxazol-3-yl)-6-methylpyridine-2-yl]-2-(pyridine-2-yl)ethan-1-amine hydrochloride], for which the IC50 against HCN2 is 3.2 µM; at HCN4, above 30 µM.

As for `Cc1ccc(F)c(C[C@H](N)c2ncccc2-c2noc3ccccc23)n1` [Example 24, (S)-1-[3-(Benzo[d]isoxazol-3-yl)pyridine-2-yl]-2-(3-fluoro-6-methylpyridine-2-yl)ethan-1-amine hydrochloride], the IC50 against HCN2 was found to be 4.2 µM.

`N[C@@H](Cc1ccccn1)c1ccccc1-c1noc2ncccc12` [Example 2, (S)-1-[2-(Isoxazolo[5,4-b]pyridine-3-yl)phenyl]-2-(pyridin-2-yl)ethan-1-amine] returned an IC50 on HCN2 of 10.2 µM.

In the case of `N#Cc1cccc(C[C@H](N)c2ncccc2-c2noc3ccccc23)n1` [Example 10, (S)-6-{2-Amino-2-[3-(benzoy[d]isoxazol-3-yl)pyridine-2-yl]ethyl}pyridine-2-carbonitrile hydrochloride], the IC50 on HCN2 worked out at 1.9 µM; against HCN4, 16.7 µM.

For `CN(C)C(=O)c1cccc(C[C@H](N)c2ncccc2-c2noc3ccccc23)n1` [Example 18, (S)-6-{2-Amino-2-[3-(benzoy[d]isoxazol-3-yl)pyridine-2-yl]ethyl}-N,N-dimethylpyridine-2-carboxamide], the IC50 on HCN2 was 11.2 µM; against HCN4, above 30 µM.

In general, IC50 refers to the concentration needed to halve the response being measured.
